Results from patent US12116356B2, “N-heterocyclic five-membered ring-containing capsid protein assembly inhibitor, pharmaceutical composition thereof, and use thereof” (CHIA TAI TIANQING PHARMACEUTICAL GROUP CO., LTD., priority 2018, dated 2024).

How the values were obtained:
[1] = Plasma protein binding assay (equilibrium dialysis), mouse plasma; type: in vitro ADME
Procedure: Formulation of plasma sample: 495 μL of blank plasmas of the corresponding species (mouse, rat, dog, monkey, and human) were drawn respectively, and thereto was added 5 μL of the corresponding test compound solution or positive control to give plasma sample solutions having a plasma drug concentration of the compound of 1 μM, and 10 μM, respectively (formulated with acetonitrile).
The pre-treated dialysis membrane was placed in a high-throughput equilibrium dialysis device, and 100 μL of the plasma sample solution and PBS buffer solution were drawn and added respectively to both sides of the dialysis membrane (sample side and buffer side) (n=3). After the equilibration device was sealed with a film, it was incubated at 37° C. overnight (100 rpm). After dialysis equilibrium was reached, 50 μL samples were drawn from the sample side and the buffer side, respectively, and the reaction was terminated by adding ice acetonitrile containing an internal standard.
Sample pre-treatment: To 50 μL of the plasma-side sample was added 450 μL of ice acetonitrile containing an internal standard, and then precipitated. After vortexing for 5 minutes, the sample was centrifugated (12000 rpm, 4° C.) for 10 minutes. 75 μL of the supernatant was pipetted, and 75 μL of ultrapure water was added thereto for dilution and mixed uniformly. 1 μL of the resulting solution was injected for analysis. To 50 μL of the PBS-side sample was added 250 μL of ice acetonitrile with an internal standard, and precipitated. After vortexing for 5 min, the sample was centrifugated (12000 rpm, 4° C.) for 10 min. 75 μL of the supernatant was pipetted, and 75 μL of ultrapure water was added thereto for dilution and mixed uniformly. 2 μL of the resulting solution was injected for analysis.

HBV DNA in HepAD38 cells = test: In vitro cell HBV DNA inhibitory activity (anti-HBV activity) in HepAD38 cells; type: cell-based; conditions: Hepatitis B virus, 144 h; anti-HBV activity in HepAD38 cells, 6 days treatment, intracellular capsid HBV DNA by qPCR; read-out: EC50
Method in brief: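 HepG2.2.15 or HepAD38 cells on collagen-coated plates were grown 48 h, then treated 6 days with 10-point two-fold compound dilutions, with medium and compound refreshed every 72 h. Intracellular capsid HBV DNA quantified by real-time qPCR. EC50 from Ct-based inhibition by four-parameter fit.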

[2] = test system: HBV (recombinant plasmid pHBV 1.3); test: Antiviral effect evaluation in HDI mouse model; type: in vivo, C57BL/6 mice; conditions: 30 mg/kg intragastric once daily for 6 days
Procedure: 6-8 week old male C57BL/6 mice was used, and each mouse was injected with purified recombinant plasmid pHBV 1.3 (10 μg) dissolved in PBS equivalent to a volume of about 10% of its body weight through the tail vein within 3-8 s. Blood was collected from the orbits of the mice at 24 hours after the plasmid injection to detect serum HBV DNA. The model mice having uniform serum DNA were selected and divided into: a blank control group, a vehicle control group, and a test substance group. Mice in each group were continuously administered intragastrically once daily for 6 days at a dose of 30 mg/kg. The mouse serum was taken on day 1, 3, 5, and 7 after the injection, and the mice were sacrificed on day 7 to take liver tissue samples. The HBV DNA copy numbers in serum and liver of the mice were detected by fluorescent quantitative PCR method.

CYP1A2 = CYP1A2 (Homo sapiens (Human), UniProt P05177); test: CYP450 enzyme inhibition study (liver microsomes, subtype IC50); type: in vitro ADME
Procedure: (§1) 500 μL of a final incubation system contains 50 μL of liver microsomes (protein concentration: 0.2 mg/mL), 1 μL of mixed CYP450 specific substrates (CYP1A2, CYP 2B6, CYP 2C9, CYP2C19, CYP 2D6, and CYP 3A4), 398 μL PBS buffer (PH7.4), 1 μL specific positive inhibitor (positive control group) or the test compound (formulated with acetonitrile), and 50 μL NADPH+MgCl2. Duplicate incubation systems of 0.5 mL each were formulated for each CYP450 subtype. A total volume of 450 μL of a uniformly mixed solution of the substrate and the enzyme was formulated in each tube, and the solution and NADPH were pre-incubated at 37° C. for 5 minutes, respectively. Then 50 μL of the mixed solution of NADPH+MgCl2 was added for reaction. 50 μL of the reaction solution was taken out at 30 minutes, and the reaction was terminated with 300 μL of ice acetonitrile containing an internal standard. In addition, two control groups of 500 μL each without NADPH were prepared in parallel as a negative control group.
(§2) Sample pre-treatment: To 50 μL of the incubated sample was added 300 μL of ice acetonitrile containing an internal standard, and then precipitated. After vortexing for 5 minutes, the sample was centrifugated (12000 rpm, 4° C.) for 10 minutes. 75 μL of the supernatant was pipetted, and 75 μL of ultrapure water was added thereto for dilution and mixed uniformly. 1 μL of the resulting solution was injected for analysis.

CYP 2C9 = CYP 2C9 (Homo sapiens (Human), UniProt P11712); test: as above; type: in vitro ADME; conditions: 30 minutes, read-out: Subtypes IC50 2C9
Procedure: as §1, §2

CYP 2B6 = CYP 2B6 (Homo sapiens (Human), UniProt P20813); test: as above; type: in vitro ADME; conditions: 30 minutes, read-out: Subtypes IC50 2B6
Procedure: as §1, §2

CYP 2D6 = CYP 2D6 (Homo sapiens (Human), UniProt P10635); test: as above; type: in vitro ADME; conditions: 30 minutes, read-out: Subtypes IC50 2D6
Procedure: as §1, §2

CYP 3A4 = CYP 3A4 (Homo sapiens (Human), UniProt P08684); test: as above; type: in vitro ADME; conditions: 30 minutes, read-out: Subtypes IC50 3A4
Procedure: as §1, §2

CYP2C19 = CYP2C19 (Homo sapiens (Human), UniProt P33261); test: as above; type: in vitro ADME; conditions: 30 minutes, read-out: Subtypes IC50 2C19
Procedure: as §1, §2

CYP 3A4, sequence (P08684 whole entry): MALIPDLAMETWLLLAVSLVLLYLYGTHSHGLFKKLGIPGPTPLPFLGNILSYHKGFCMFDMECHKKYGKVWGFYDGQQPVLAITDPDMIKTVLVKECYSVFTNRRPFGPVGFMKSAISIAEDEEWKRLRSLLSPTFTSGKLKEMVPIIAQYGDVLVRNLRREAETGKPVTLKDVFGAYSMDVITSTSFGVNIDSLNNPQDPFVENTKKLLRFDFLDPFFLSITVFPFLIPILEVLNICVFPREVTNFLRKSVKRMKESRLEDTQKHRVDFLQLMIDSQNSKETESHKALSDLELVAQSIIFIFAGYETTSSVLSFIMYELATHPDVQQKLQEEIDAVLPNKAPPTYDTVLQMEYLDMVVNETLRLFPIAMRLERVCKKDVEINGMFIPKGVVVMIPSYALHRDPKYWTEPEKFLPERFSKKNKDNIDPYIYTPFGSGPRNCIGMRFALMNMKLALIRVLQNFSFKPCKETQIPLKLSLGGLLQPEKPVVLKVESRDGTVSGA
CYP1A2, sequence (P05177 whole entry): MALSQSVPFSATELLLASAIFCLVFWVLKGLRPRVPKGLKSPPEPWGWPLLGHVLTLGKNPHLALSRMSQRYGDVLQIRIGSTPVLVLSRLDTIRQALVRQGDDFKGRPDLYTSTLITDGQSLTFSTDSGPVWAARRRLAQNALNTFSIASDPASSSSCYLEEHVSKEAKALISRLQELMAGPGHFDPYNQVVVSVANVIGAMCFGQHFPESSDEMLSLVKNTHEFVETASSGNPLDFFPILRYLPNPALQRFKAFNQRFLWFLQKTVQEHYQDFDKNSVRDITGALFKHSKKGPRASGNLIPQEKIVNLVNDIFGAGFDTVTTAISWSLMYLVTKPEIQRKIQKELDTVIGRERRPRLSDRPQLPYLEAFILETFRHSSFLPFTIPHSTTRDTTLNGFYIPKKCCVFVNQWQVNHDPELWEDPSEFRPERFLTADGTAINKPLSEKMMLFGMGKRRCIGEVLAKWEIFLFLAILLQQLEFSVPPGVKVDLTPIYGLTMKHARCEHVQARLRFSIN
CYP 2C9, sequence (P11712 whole entry): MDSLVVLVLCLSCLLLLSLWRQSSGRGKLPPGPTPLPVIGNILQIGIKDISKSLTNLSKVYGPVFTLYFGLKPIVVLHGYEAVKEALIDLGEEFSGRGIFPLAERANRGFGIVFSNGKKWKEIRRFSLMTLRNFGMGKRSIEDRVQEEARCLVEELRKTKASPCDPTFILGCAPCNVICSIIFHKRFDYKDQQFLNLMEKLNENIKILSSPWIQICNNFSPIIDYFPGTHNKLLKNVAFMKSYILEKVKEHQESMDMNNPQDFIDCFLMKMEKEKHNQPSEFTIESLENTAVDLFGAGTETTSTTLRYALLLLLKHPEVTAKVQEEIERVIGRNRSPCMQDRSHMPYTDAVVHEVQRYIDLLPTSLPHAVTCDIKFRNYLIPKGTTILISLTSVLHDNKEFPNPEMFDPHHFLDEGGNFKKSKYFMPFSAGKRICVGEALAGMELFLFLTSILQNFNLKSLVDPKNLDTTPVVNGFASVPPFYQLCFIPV
CYP 2D6, sequence (P10635 whole entry): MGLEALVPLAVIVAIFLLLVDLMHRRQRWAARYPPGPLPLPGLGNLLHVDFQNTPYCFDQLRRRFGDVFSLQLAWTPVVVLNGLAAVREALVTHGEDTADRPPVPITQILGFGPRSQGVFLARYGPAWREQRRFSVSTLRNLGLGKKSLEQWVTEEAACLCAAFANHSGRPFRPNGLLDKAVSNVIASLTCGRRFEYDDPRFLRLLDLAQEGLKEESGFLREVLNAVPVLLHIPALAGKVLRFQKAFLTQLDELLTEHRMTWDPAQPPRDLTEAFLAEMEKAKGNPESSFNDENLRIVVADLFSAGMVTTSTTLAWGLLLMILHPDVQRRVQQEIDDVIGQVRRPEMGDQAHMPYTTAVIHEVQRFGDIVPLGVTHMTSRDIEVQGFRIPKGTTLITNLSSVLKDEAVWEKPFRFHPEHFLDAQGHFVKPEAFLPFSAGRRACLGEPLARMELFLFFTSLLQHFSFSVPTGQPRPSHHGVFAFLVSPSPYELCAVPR
CYP2C19, sequence (P33261 whole entry): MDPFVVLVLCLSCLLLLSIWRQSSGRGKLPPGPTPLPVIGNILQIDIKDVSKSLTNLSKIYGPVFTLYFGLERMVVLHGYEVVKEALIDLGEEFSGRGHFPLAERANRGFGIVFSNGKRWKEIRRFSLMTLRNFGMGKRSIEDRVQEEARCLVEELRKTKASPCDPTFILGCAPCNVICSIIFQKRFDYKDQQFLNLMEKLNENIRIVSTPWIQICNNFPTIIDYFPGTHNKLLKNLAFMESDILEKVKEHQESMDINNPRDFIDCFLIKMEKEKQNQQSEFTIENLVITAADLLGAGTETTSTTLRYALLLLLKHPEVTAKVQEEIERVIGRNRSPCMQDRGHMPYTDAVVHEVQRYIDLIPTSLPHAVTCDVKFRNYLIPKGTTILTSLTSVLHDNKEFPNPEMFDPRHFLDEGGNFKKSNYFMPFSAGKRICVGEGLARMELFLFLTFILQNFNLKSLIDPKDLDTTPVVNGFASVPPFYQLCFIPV
CYP 2B6, sequence (P20813 whole entry): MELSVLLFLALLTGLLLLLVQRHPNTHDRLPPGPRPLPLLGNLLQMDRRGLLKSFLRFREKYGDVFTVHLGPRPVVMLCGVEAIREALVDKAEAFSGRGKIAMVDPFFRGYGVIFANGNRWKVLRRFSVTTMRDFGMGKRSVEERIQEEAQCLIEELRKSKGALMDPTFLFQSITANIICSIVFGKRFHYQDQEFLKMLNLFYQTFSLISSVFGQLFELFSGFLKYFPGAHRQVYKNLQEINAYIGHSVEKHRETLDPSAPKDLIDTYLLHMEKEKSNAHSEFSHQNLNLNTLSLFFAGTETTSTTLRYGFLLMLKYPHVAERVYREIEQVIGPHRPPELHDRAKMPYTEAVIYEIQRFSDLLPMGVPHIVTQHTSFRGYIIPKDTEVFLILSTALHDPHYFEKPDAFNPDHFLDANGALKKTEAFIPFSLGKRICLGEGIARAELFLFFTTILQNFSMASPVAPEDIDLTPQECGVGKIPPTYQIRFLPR

Row | SMILES | Binding rate ([1]; 1 μM) | Binding rate ([1]; 10 μM) | EC50 (HBV DNA in HepAD38 cells) | Reduction levels (log10) of HBV DNA in semm on day 5 [2] | IC50 (CYP1A2) | IC50 (CYP 2C9) | IC50 (CYP 2B6) | IC50 (CYP 2D6) | IC50 (CYP 3A4) | IC50 (CYP2C19)
1 | Cc1c(C(=O)Nc2ccc(F)c(C#N)c2)c(C)n(C)c1C(=O)C(=O)N[C@@H](C)C(F)(F)F [Example 12] | 75.3% | 74.5% | < 0.01 µM | 2.17 log10 | 46.4 µM | 79.7 µM | 146 µM | 224 µM | > 200 µM | 60 µM
2 | Cc1c(C(=O)Nc2ccc(F)c(C#N)c2)c(C)n(C)c1C(=O)C(=O)NC1(C(F)(F)F)COC1 [Example 25, N-(3-cyano-4-fluorophenyl)-1,2,4-trimethyl-5-(2-oxo-2-((3-(trifluoromethyl)oxetan-3-yl)amino)acetyl)-1H-pyrrole-3-carboxamide] | 76.5% | 74.7% | < 0.01 µM | 1.73 log10 | 229 µM | 16.6 µM | 61.1 µM | 120 µM | 76 µM | 24.9 µM
